Earlier results, collected in patent US11918653B2, “Triglyceride otic formulations and uses thereof” (DOMPÉ FARMACEUTICI S.P.A., priority 2017, dated 2024).

What was measured:
TNF-α = conditions: LPS-challenged mice
lymphotoxin (TNF-β) = molecular target: T1, lymphotoxin (TNF-β) (Homo sapiens, UniProt P01374)
T1 sequence (P01374 35-205): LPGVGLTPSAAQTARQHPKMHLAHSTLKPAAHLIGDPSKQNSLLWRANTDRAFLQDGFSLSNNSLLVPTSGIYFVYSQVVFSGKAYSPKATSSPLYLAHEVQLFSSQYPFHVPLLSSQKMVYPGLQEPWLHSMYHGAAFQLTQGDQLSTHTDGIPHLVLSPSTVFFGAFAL

[1] = after topical application
rat arthritis model = conditions: 30 mg/kg
[2] = tested on: mouse collagen-induced arthritis model; conditions: 30 mg/kg dose
[3] = molecular target: constitutively activated D136A mutant VP2 receptor (Homo sapiens, UniProt P30518, D136A)
[4] = tested on: Meniere's disease symptoms; conditions: infusion into the scala tympani
[5] = tested on: TNF-α production in the LPS-induced human PBMC cells; conditions: read-out: IC50 for inhibiting TNF-α production
tinnitus = conditions: administered by IV
[6] = in vivo
[7] = tested on: TNF-α production in the LPS-induced MonoMac-6 cells; conditions: read-out: IC50 for inhibiting TNF-α production

## O=C(Nc1cc(Cl)cc2c1[nH]c1cnccc12)c1cccnc1 [PS-1145]
TNF-α
  production of TNF-α: reduces the production of TNF-α

## Adalimumab
Lymphotoxin (TNF-β)
  binding or inactivation of lymphotoxin (TNF-β): does not bind or inactivate
Systemic administration
  patients developing injection site reactions (erythema and/or itching, hemorrhage, pain and/or swelling): 20%

## etanercept
Systemically treated
  patients experiencing injection site reactions: over one-third of patients

## C=CC[C@@H]1/C=C(\C)C[C@H](C)C[C@H](OC)[C@H]2O[C@@](O)(C(=O)C(=O)N3CCCC[C@H]3C(=O)O[C@H](/C(C)=C/[C@@H]3CC[C@@H](O)[C@H](OC)C3)[C@H](C)[C@@H](O)CC1=O)[C@H](C)C[C@@H]2OC (relative stereo) [tacrolimus, [3S-[3R*[E(1S*,3S*,4S*)], 4S*,5R*,8S*,9E,12R*,14R*,15S*,16R*,18S*,19S*,26aR*]]-5,6,8,11,12,13,14,15,16,17,18,19,24,25,26,26a-hexadecahydro-5,19-dihydroxy-3-[2-(4-hydroxy-3-methoxycyclohexyl)-1-methylethenyl]-14,16-dimethoxy-4,10,12,18-tetramethyl-8-(2-propenyl)-15,19-epoxy-3H-pyrido[2,1-39c][1,4]oxaazacyclotricosine-1,7,20,21(4H,23H)-tetrone monohydrate]
[1]
  bioavailability: less than 0.5%

## COc1cccc2nc(-c3cccs3)nc(NN3C(=O)C=C(C)C3=O)c12 [SPC-839]
Rat arthritis model
  paw edema: reduces paw edema

## Cc1ccc2nc(NCCN)c3ncc(C)n3c2c1 [BMS-345541]
[2]
  severity of disease: significantly reduced the severity of disease

## CCOc1ccc2c(c1)C1(CCC(OCCN3CCOCC3)CC1)C(=O)N2S(=O)(=O)c1ccc(C(=O)NC(C)(C)C)cc1OC.O=C(O)/C=C/C(=O)O (centres unmarked) [SR-1211463, 1-(4-(N-tert-butylcarbamoyl)-2-methoxybenzenesulfonyl)-5-ethoxy-3-spiro-(4-(2-morpholinoethoxy)cyclohexane)indol-2-one fumarate]
[3]
  behaviour at D136A mutant VP2 receptor: inverse agonist

## Cc1ccccc1C(=O)Nc1ccc(C(=O)N2CCCC(N(C)C)c3ccccc32)cc1.Cl (racemic) [OPC-31260, (±)-5-dimethylamino-1-(4-[2-methylbenzoylamino]benzoyl)-2,3,4,5-tetrahydro-1H-benzazepin hydrochloride]
[3]
  behaviour at D136A mutant VP2 receptor: inverse agonist
[4]
  Meniere's disease symptoms: marked reduction of Meniere's disease symptoms

## CC[C@H](C)[C@H](NC(=O)[C@H](CC(C)C)[C@H](C(C)C)N(O)C=O)C(=O)Nc1ccccn1 [GW3333]
[5]
  IC50: 970 nM

## CCN(CC)CC(=O)Nc1c(C)cccc1C [Lidocaine]
tinnitus
  sufferers in whom noise associated with tinnitus is reduced or eliminated: 60-80%

## CC(C)C[C@@H](C(=O)N[C@@H](CCCN/C(N)=N/[N+](=O)[O-])C(=O)Nc1nccs1)[C@H](C(C)C)N(O)C=O [Nitroarginine analog A]
[6]
  oral activity: lacks oral activity
[7]
  IC50: 34 nM
